The source made the active and inactive calls. The calls are words filed in the database; no cut-off is given here.
What was measured:
[1] = Cytotoxicity against human MCF-10A cells assessed as inhibition of cell proliferation incubated for 72 hrs by MTT assay; format: toxicity, cell-based
MDA-MB-231 [2] = experiment: Downregulation of BRD4 expression in human MDA-MB-231 cells by Western blot analysis; format: functional, cell-based; settings: dose 0.2-5 µM
[3] = biological target: Bromodomain-containing protein 4 (Homo sapiens, UniProt O60885); experiment: Inhibition of BRD4 (unknown origin) incubated for 120 mins by TR-FRET assay
MDA-MB-231 [4] = experiment: Downregulation of GPX4 expression in human MDA-MB-231 cells by Western blot analysis; format: functional, cell-based; settings: dose 0.2-5 µM
MDA-MB-231 [5] = experiment: Induction of ferroptosis in human MDA-MB-231 cells assessed as increase in intracellular LPO accumulation incubated for 48 hrs by confocal laser scanning microscopic analysis; format: functional, cell-based; settings: dose 0.2-5 µM
MDA-MB-231 [6] = experiment: Induction of ferroptosis in human MDA-MB-231 cells assessed as increase in intracellular MDA accumulation incubated for 48 hrs; format: functional, cell-based; settings: dose 0.2-5 µM
MDA-MB-231 [7] = experiment: Induction of ferroptosis in human MDA-MB-231 cells assessed as decrease in GSH level incubated for 48 hrs; format: functional, cell-based; settings: dose 0.2-5 µM
MDA-MB-231 [8] = experiment: Induction of ferroptosis in human MDA-MB-231 cells assessed as increase in intracellular Fe2+ level at 0.2 to 5 uM incubated for 48 hrs by FerroOrange staining based flow cytometry analysis; format: functional, cell-based; settings: dose 0.2-5 µM
MDA-MB-231 [9] = experiment: Downregulation of SLC3A2 expression in human MDA-MB-231 cells; format: functional, cell-based; settings: dose 0.2-5 µM
MDA-MB-231 [10] = experiment: Downregulation of SLC7A11 expression in human MDA-MB-231 cells; format: functional, cell-based; settings: dose 0.2-5 µM
MDA-MB-231 [11] = experiment: Downregulation of FSP1 expression in human MDA-MB-231 cells; format: functional, cell-based; settings: dose 0.2-5 µM
MDA-MB-231 [12] = experiment: Downregulation of FTH1 expression in human MDA-MB-231 cells; format: functional, cell-based; settings: dose 0.2-5 µM
MDA-MB-231 [13] = experiment: Downregulation of NRF2 expression in human MDA-MB-231 cells at 0.2 to 5 uM; format: functional, cell-based; settings: dose 0.2-5 µM
MDA-MB-231 [14] = experiment: Downregulation of HO-1 expression in human MDA-MB-231 cells at 0.2 to 5 uM; format: functional, cell-based; settings: dose 0.2-5 µM
MDA-MB-231 [15] = experiment: Induction of apoptosis in human MDA-MB-231 cells assessed as viable cells at 0.2 uM incubated for 48 hrs by Annexin V/PI staining based flow cytometry analysis (reference value: 97.85%); format: functional; settings: read-out: Activity
MDA-MB-231 [16] = experiment: Induction of apoptosis in human MDA-MB-231 cells assessed as early apoptotic cells at 0.2 uM incubated for 48 hrs by Annexin V/PI staining based flow cytometry analysis (reference value: 0.80%); format: functional
MDA-MB-231 [17] = experiment: Induction of apoptosis in human MDA-MB-231 cells assessed as late apoptotic cells at 0.2 uM incubated for 48 hrs by Annexin V/PI staining based flow cytometry analysis (reference value: 0.14%); format: functional
MDA-MB-231 [18] = experiment: Induction of apoptosis in human MDA-MB-231 cells assessed as necrotic cells at 0.2 uM incubated for 48 hrs by Annexin V/PI staining based flow cytometry analysis (reference value: 0.03%); format: functional
MDA-MB-231 [19] = experiment: Induction of apoptosis in human MDA-MB-231 cells assessed as viable cells at 1 uM incubated for 48 hrs by Annexin V/PI staining based flow cytometry analysis (reference value: 97.85%); format: functional; settings: read-out: Activity
MDA-MB-231 [20] = experiment: Induction of apoptosis in human MDA-MB-231 cells assessed as early apoptotic cells at 1 uM incubated for 48 hrs by Annexin V/PI staining based flow cytometry analysis (reference value: 0.80%); format: functional
MDA-MB-231 [21] = experiment: Induction of apoptosis in human MDA-MB-231 cells assessed as late apoptotic cells at 1 uM incubated for 48 hrs by Annexin V/PI staining based flow cytometry analysis (reference value: 0.14%); format: functional
MDA-MB-231 [22] = experiment: Induction of apoptosis in human MDA-MB-231 cells assessed as necrotic cells at 1 uM incubated for 48 hrs by Annexin V/PI staining based flow cytometry analysis (reference value: 0.03%); format: functional
MDA-MB-231 [23] = experiment: Induction of apoptosis in human MDA-MB-231 cells assessed as viable cells at 5 uM incubated for 48 hrs by Annexin V/PI staining based flow cytometry analysis (reference value: 97.85%); format: functional; settings: read-out: Activity
MDA-MB-231 [24] = experiment: Induction of apoptosis in human MDA-MB-231 cells assessed as early apoptotic cells at 5 uM incubated for 48 hrs by Annexin V/PI staining based flow cytometry analysis (reference value: 0.80%); format: functional
MDA-MB-231 [25] = experiment: Induction of apoptosis in human MDA-MB-231 cells assessed as late apoptotic cells at 5 uM incubated for 48 hrs by Annexin V/PI staining based flow cytometry analysis (reference value: 0.14%); format: functional
MDA-MB-231 [26] = experiment: Induction of apoptosis in human MDA-MB-231 cells assessed as necrotic cells at 5 uM incubated for 48 hrs by Annexin V/PI staining based flow cytometry analysis (reference value: 0.03%); format: functional
MDA-MB-231 [27] = experiment: Induction of apoptosis in human MDA-MB-231 cells assessed as upregulation of Bax expression at 0.2 to 5 uM; format: functional, cell-based; settings: dose 0.2-5 µM
MDA-MB-231 [28] = experiment: Induction of apoptosis in human MDA-MB-231 cells assessed as upregulation of C-myc expression at 0.2 to 5 uM; format: functional, cell-based; settings: dose 0.2-5 µM
MDA-MB-231 [29] = experiment: Induction of apoptosis in human MDA-MB-231 cells assessed as […] expression at 0.2 to 5 uM; format: functional, cell-based; settings: dose 0.2-5 µM
MDA-MB-231 [30] = experiment: Induction of cell cycle arrest in human MDA-MB-231 cells assessed as accumulation of cells at G0/G1 phase at 0.2 uM incubated for 48 hrs by propidium iodide staining flow cytometric analysis (reference value: 64.56 %); format: functional
MDA-MB-231 [31] = experiment: Induction of cell cycle arrest in human MDA-MB-231 cells assessed as accumulation of cells at G2/M phase at 0.2 uM incubated for 48 hrs by propidium iodide staining flow cytometric analysis (reference value: 8.69%); format: functional
MDA-MB-231 [32] = experiment: Induction of cell cycle arrest in human MDA-MB-231 cells assessed as accumulation of cells at S phase at 0.2 uM incubated for 48 hrs by propidium iodide staining flow cytometric analysis (reference value: 26.75%); format: functional
MDA-MB-231 [33] = experiment: Induction of cell cycle arrest in human MDA-MB-231 cells assessed as accumulation of cells at G0/G1 phase at 1 uM incubated for 48 hrs by propidium iodide staining flow cytometric analysis (reference value: 64.56 %); format: functional
MDA-MB-231 [34] = experiment: Induction of cell cycle arrest in human MDA-MB-231 cells assessed as accumulation of cells at G2/M phase at 1 uM incubated for 48 hrs by propidium iodide staining flow cytometric analysis (reference value: 8.69%); format: functional
MDA-MB-231 [35] = experiment: Induction of cell cycle arrest in human MDA-MB-231 cells assessed as accumulation of cells at S phase at 1 uM incubated for 48 hrs by propidium iodide staining flow cytometric analysis (reference value: 26.75%); format: functional
MDA-MB-231 [36] = experiment: Induction of cell cycle arrest in human MDA-MB-231 cells assessed as accumulation of cells at G0/G1 phase at 5 uM incubated for 48 hrs by propidium iodide staining flow cytometric analysis (reference value: 64.56 %); format: functional
MDA-MB-231 [37] = experiment: Induction of cell cycle arrest in human MDA-MB-231 cells assessed as accumulation of cells at G2/M phase at 5 uM incubated for 48 hrs by propidium iodide staining flow cytometric analysis (reference value: 8.69%); format: functional
MDA-MB-231 [38] = experiment: Induction of cell cycle arrest in human MDA-MB-231 cells assessed as accumulation of cells at S phase at 5 uM incubated for 48 hrs by propidium iodide staining flow cytometric analysis (reference value: 26.75%); format: functional
MDA-MB-231 [39] = experiment: Anti-metastatic activity in human MDA-MB-231 cells assessed as inhibition of cell migration incubated for 24 hrs by inverted microscopic analysis; format: functional, cell-based; settings: dose 0.2-5 µM
MDA-MB-231 [40] = experiment: Antitumor activity against human MDA-MB-231 cells xenografted in nude mouse assessed as suppression of tumor growth at 50 mg/kg, ip administered daily for 21 days; format: functional, organism-based; settings: time 21.0 day
[41] = Toxicity in nude mouse xenografted with human MDA-MB-231 cells at 50 mg/kg, ip administered daily for 21 days; format: organism-based; settings: in vivo, 504 h, time 21 day
MDA-MB-231 [42] = experiment: Antitumor activity against human MDA-MB-231 cells xenografted in nude mouse assessed as tumor growth inhibition at 50 mg/kg, ip administered daily for 21 days; format: functional; settings: MDA-MB-231, 504 h, time 21 day, read-out: TGI
MDA-MB-231 [43] = experiment: cells; settings: Homo sapiens, MDA-MB-231, 72 h
Description: Antiproliferative activity against human MDA-MB-231 cells assessed as inhibition of cell proliferation incubated for 72 hrs by MTT assay

BT-549 = experiment: cells; settings: Homo sapiens, BT-549, 72 h
Description: Antiproliferative activity against human BT-549 cells assessed as inhibition of cell proliferation incubated for 72 hrs by MTT assay

Question: For `Cc1sc2c(c1C)C(c1ccc(Cl)cc1)=N[C@@H](CC(=O)NC1CCN(C(=O)CCl)CC1)c1nnc(C)n1-2`, which IC50 at 72 h [1] is on record?
Answer: 2560 nM

Question: And the Activity (MDA-MB-231 [2])?
Answer: Dose-dependent-effect

Question: And the IC50 [3]?
Answer: 331 nM

Question: What about the Activity (MDA-MB-231 [4]) of the same compound?
Answer: Dose-dependent-effect

Question: And the Activity (MDA-MB-231 [5])?
Answer: Dose-dependent-effect

Question: What about the Activity (MDA-MB-231 [6]) of the same compound?
Answer: Dose-dependent-effect

Question: And the Activity (MDA-MB-231 [7])?
Answer: Dose-dependent-effect

Question: And the Activity (MDA-MB-231 [8])?
Answer: Active

Question: What about the Activity (MDA-MB-231 [9]) of the same compound?
Answer: Dose-dependent-effect

Question: And the Activity (MDA-MB-231 [10])?
Answer: Dose-dependent-effect

Question: And the Activity (MDA-MB-231 [11])?
Answer: Dose-dependent-effect

Question: And the Activity (MDA-MB-231 [12])?
Answer: Dose-dependent-effect

Question: And the Activity (MDA-MB-231 [13])?
Answer: Active

Question: What about the Activity (MDA-MB-231 [14]) of the same compound?
Answer: Active

Question: What about the viability at 0.2 µM (MDA-MB-231 [15]) of the same compound?
Answer: 88%

Question: What about the Activity (MDA-MB-231 [16]) of the same compound?
Answer: 6.1%

Question: And the Activity (MDA-MB-231 [17])?
Answer: 5.14%

Question: And the Activity (MDA-MB-231 [18])?
Answer: 0.68%

Question: And the viability at 1 µM (MDA-MB-231 [19])?
Answer: 72.5%

Question: What about the Activity (MDA-MB-231 [20]) of the same compound?
Answer: 16.51%

Question: And the Activity (MDA-MB-231 [21])?
Answer: 9.51%

Question: And the Activity (MDA-MB-231 [22])?
Answer: 1.44%

Question: What about the viability at 5 µM (MDA-MB-231 [23]) of the same compound?
Answer: 59.7%

Question: What about the Activity (MDA-MB-231 [24]) of the same compound?
Answer: 18.2%

Question: What about the Activity (MDA-MB-231 [25]) of the same compound?
Answer: 21.27%

Question: What about the Activity (MDA-MB-231 [26]) of the same compound?
Answer: 0.7%

Question: And the Activity (MDA-MB-231 [27])?
Answer: Active

Question: And the Activity (MDA-MB-231 [28])?
Answer: Active

Question: And the Activity (MDA-MB-231 [29])?
Answer: Active

Question: And the Activity (MDA-MB-231 [30])?
Answer: 60.87%

Question: And the Activity (MDA-MB-231 [31])?
Answer: 10.25%

Question: And the Activity (MDA-MB-231 [32])?
Answer: 28.88%

Question: And the Activity (MDA-MB-231 [33])?
Answer: 53.71%

Question: And the Activity (MDA-MB-231 [34])?
Answer: 15.47%

Question: What about the Activity (MDA-MB-231 [35]) of the same compound?
Answer: 30.62%

Question: And the Activity (MDA-MB-231 [36])?
Answer: 42.44%

Question: And the Activity (MDA-MB-231 [37])?
Answer: 25.39%

Question: And the Activity (MDA-MB-231 [38])?
Answer: 32.17%

Question: And the Activity (MDA-MB-231 [39])?
Answer: Dose-dependent-effect

Question: What about the Activity (MDA-MB-231 [40]) of the same compound?
Answer: Active

Question: What about the Activity [41] of the same compound?
Answer: Non-toxic

Question: What about the inhibition in vivo at 50 mg/kg (MDA-MB-231 [42]) of the same compound?
Answer: 51.4%

Question: And the IC50 (MDA-MB-231 [43])?
Answer: 490 nM

Question: And the IC50 (BT-549)?
Answer: 520 nM

From ChEMBL document CHEMBL6153076, “Discovery of novel JQ1 derivatives as dual ferroptosis and apoptosis inducers for the treatment of triple-negative breast cancer” (Eur J Med Chem, 2025)
